Blank lines part the entries; values can stand above or below the molecule they belong to.
Key:
CDK5/p35(h) = target: T1, CDK5/p35(h) (Homo sapiens, UniProt Q00535); experiment: KinaseProfiler enzyme profiling; format: biochemical
T1 construct: purchased Eurofins KinaseProfiler
Experimental: (§1) Enzyme profiling services were provided by KinaseProfiler™ (Eurofin, Brussels, Belgium). The concentration of erianin was 100 nM, and total 70 kinases were tested in this in vitro screening and profiling services (2 repetitions). For more details, refer to the manufacturer’s instructions (www.eurofinsdiscoveryservices.com).

MKK6(h) = target: T2, MKK6(h) (Homo sapiens, UniProt P52564); experiment: KinaseProfiler enzyme profiling; format: biochemical
T2 construct: purchased Eurofins KinaseProfiler
Experimental: as §1

DYRK2(h) = target: T3, DYRK2(h) (Homo sapiens, UniProt Q92630); experiment: KinaseProfiler enzyme profiling; format: biochemical
T3 construct: purchased Eurofins KinaseProfiler
T3 sequence (Q92630 whole entry): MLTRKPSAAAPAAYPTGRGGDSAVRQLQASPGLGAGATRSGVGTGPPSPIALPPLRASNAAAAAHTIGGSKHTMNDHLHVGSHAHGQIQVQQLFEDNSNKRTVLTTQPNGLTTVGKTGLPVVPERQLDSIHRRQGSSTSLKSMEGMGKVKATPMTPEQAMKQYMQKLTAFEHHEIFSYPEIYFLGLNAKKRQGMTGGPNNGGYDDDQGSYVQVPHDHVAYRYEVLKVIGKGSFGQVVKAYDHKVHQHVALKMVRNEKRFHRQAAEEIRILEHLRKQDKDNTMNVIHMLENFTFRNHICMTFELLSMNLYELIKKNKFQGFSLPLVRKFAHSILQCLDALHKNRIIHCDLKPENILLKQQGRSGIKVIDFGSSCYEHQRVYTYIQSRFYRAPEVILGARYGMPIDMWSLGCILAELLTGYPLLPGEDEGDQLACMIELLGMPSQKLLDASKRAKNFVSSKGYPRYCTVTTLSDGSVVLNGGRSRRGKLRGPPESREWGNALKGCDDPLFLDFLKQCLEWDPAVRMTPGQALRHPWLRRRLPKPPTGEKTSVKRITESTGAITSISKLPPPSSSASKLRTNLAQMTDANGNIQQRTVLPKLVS
Experimental: as §1

DCAMKL3(h) = target: T4, DCAMKL3(h) (Homo sapiens, UniProt Q9C098); experiment: KinaseProfiler enzyme profiling; format: biochemical
T4 construct: purchased Eurofins KinaseProfiler
Experimental: as §1

HIPK2(h) = target: T5, HIPK2(h) (Homo sapiens, UniProt Q9H2X6); experiment: KinaseProfiler enzyme profiling; format: biochemical
T5 construct: purchased Eurofins KinaseProfiler
T5 sequence (Q9H2X6 whole entry): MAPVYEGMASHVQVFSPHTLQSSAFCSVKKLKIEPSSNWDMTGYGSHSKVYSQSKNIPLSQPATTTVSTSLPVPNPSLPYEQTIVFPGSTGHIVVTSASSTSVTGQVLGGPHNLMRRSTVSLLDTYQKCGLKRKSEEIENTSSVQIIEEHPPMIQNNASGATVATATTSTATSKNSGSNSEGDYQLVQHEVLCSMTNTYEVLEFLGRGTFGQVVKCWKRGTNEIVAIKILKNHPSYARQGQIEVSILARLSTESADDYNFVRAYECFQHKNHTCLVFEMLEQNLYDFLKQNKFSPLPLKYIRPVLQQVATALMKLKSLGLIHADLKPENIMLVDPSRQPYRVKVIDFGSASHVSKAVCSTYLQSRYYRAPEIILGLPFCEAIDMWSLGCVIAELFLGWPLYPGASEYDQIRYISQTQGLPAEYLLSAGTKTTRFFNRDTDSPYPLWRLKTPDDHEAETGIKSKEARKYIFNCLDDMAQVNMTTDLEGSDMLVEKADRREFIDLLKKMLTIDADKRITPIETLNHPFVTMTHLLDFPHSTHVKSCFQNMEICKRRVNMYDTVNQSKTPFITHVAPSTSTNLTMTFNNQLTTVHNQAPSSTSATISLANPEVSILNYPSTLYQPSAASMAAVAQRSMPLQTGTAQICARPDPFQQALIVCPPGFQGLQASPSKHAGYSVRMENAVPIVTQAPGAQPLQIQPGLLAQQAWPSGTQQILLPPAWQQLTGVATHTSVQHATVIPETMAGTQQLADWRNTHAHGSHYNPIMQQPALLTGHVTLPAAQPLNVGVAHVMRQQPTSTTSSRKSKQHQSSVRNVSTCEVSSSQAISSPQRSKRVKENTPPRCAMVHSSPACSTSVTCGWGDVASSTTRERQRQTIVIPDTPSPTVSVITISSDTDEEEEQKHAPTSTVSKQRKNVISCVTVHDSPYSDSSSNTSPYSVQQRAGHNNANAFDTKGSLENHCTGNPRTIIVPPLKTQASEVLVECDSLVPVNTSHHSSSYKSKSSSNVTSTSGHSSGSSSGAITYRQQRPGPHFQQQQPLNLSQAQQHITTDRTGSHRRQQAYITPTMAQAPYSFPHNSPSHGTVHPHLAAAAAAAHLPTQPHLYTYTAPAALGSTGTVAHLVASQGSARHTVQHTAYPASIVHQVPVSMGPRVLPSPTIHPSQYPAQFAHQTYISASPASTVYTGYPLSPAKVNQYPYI
Experimental: as §1

Axl(h) = target: T6, Axl(h) (Homo sapiens, UniProt P30530); experiment: KinaseProfiler enzyme profiling; format: biochemical
T6 construct: purchased Eurofins KinaseProfiler
Experimental: as §1

DAPK1(h) = target: T7, DAPK1(h) (Homo sapiens, UniProt P53355); experiment: KinaseProfiler enzyme profiling; format: biochemical
T7 construct: purchased Eurofins KinaseProfiler
Experimental: as §1

NIM1(h) = target: T8, NIM1(h) (Homo sapiens, UniProt Q8IY84); experiment: KinaseProfiler enzyme profiling; format: biochemical
T8 construct: purchased Eurofins KinaseProfiler
Experimental: as §1

CK1γ3(h) = target: T9, CK1γ3(h) (Homo sapiens, UniProt Q9Y6M4); experiment: KinaseProfiler enzyme profiling; format: biochemical
T9 construct: purchased Eurofins KinaseProfiler
Experimental: as §1

FGFR4(h) = target: T10, FGFR4(h) (Homo sapiens, UniProt P22455); experiment: KinaseProfiler enzyme profiling; format: biochemical
T10 construct: purchased Eurofins KinaseProfiler
Experimental: as §1

FGFR3(h) = target: T11, FGFR3(h) (Homo sapiens, UniProt P22607); experiment: KinaseProfiler enzyme profiling; format: biochemical
T11 construct: purchased Eurofins KinaseProfiler
Experimental: as §1

Mer(h) = target: T12, Mer(h) (Homo sapiens, UniProt Q12866); experiment: KinaseProfiler enzyme profiling; format: biochemical
T12 construct: purchased Eurofins KinaseProfiler
Experimental: as §1

A375 (BRAF V600E) CDX = experiment: Cell-derived xenograft (CDX); settings: 50 mg/kg, oral gavage
Experimental: (§2) Tumor volume (mm^3) = (length × width × height) × 0.52. SK-MEL-2: n = 10; A375 and SK-MEL-28: n = 8; HCT116: n = 9. b The photographs show tumors from CDX mice treated with vehicle, erianin, vemurafenib, or the combination. c The weight of the tumors was quantified and expressed as the treatment groups compared with the vehicle-treated group. […] The tissue lysates were prepared from CDX tumor tissues in each treatment group. […] Each point represents the IOD values of four quantified data from one mouse. Scale bars: 50 μm.
(§3) The animal experiments were performed according to the guidelines approved by the Zhengzhou University Institutional Animal Care and Use Committee. A375 cell line (1 × 10^7 cell/mouse), SK-MEL-28 cell line (5 × 10^6 cell/mouse), SK-MEL-2 cell (5 × 10^6 cell/mouse), and HCT116 cell line (1 × 10^7 cell/mouse) were injected subcutaneously into the NOD-SCID mice (Vital River Labs, Beijing, China). For the melanoma PDX mice model, the tumor was taken after surgical operation and implanted into the NPG (Vital River Labs, Beijing, China) mice under a sterile environment. For the colorectal cancer PDX mice model, NOD-SCID mice were selected as carriers for tumor growth. The measurement of tumor size was performed twice a week using vernier caliper and the calculation of tumor volume was done according to tumor volume (mm^3) = length × width × height × 0.52.

[1] = tested on: SK-MEL-28 (BRAF V600E) CDX; experiment: Cell-derived xenograft (CDX); settings: 50 mg/kg, oral gavage
Experimental: as §2, §3

Rsk2(h) = target: T13, Rsk2(h) (Homo sapiens, UniProt P51812); experiment: KinaseProfiler enzyme profiling; format: biochemical
T13 construct: purchased Eurofins KinaseProfiler
Experimental: as §1

Wee1(h) = target: T14, Wee1(h) (Homo sapiens, UniProt P30291); experiment: KinaseProfiler enzyme profiling; format: biochemical; settings: 100 nM
T14 construct: purchased Eurofins KinaseProfiler
Experimental: as §1

ZIPK(h) = target: T15, ZIPK(h) (Homo sapiens, UniProt O43293); experiment: KinaseProfiler enzyme profiling; format: biochemical; settings: 100 nM
T15 construct: purchased Eurofins KinaseProfiler
Experimental: as §1

MEK2(h) = target: T16, MEK2(h) (Homo sapiens, UniProt P36507); experiment: KinaseProfiler enzyme profiling; format: biochemical
T16 construct: purchased Eurofins KinaseProfiler
Experimental: as §1

EphB1(h) = target: T17, EphB1(h) (Homo sapiens, UniProt P54762); experiment: KinaseProfiler enzyme profiling; format: biochemical; settings: 100 nM
T17 construct: purchased Eurofins KinaseProfiler
Experimental: as §1

BTK(h) = target: T18, BTK(h) (Homo sapiens, UniProt Q06187); experiment: KinaseProfiler enzyme profiling; format: biochemical; settings: 100 nM
T18 construct: purchased Eurofins KinaseProfiler
Experimental: as §1

CaMKIIα(h) = target: T19, CaMKIIα(h) (Homo sapiens, UniProt Q9UQM7); experiment: KinaseProfiler enzyme profiling; format: biochemical; settings: 100 nM
T19 construct: purchased Eurofins KinaseProfiler
Experimental: as §1

EphA4(h) = target: T20, EphA4(h) (Homo sapiens, UniProt P54764); experiment: KinaseProfiler enzyme profiling; format: biochemical; settings: 100 nM
T20 construct: purchased Eurofins KinaseProfiler
Experimental: as §1

Ros(h) = target: T21, Ros(h) (Homo sapiens, UniProt P08922); experiment: KinaseProfiler enzyme profiling; format: biochemical; settings: 100 nM
T21 construct: purchased Eurofins KinaseProfiler
Experimental: as §1

Rsk3(h) = target: T22, Rsk3(h) (Homo sapiens, UniProt Q15349); experiment: KinaseProfiler enzyme profiling; format: biochemical; settings: 100 nM
T22 construct: purchased Eurofins KinaseProfiler
T22 sequence (Q15349 whole entry): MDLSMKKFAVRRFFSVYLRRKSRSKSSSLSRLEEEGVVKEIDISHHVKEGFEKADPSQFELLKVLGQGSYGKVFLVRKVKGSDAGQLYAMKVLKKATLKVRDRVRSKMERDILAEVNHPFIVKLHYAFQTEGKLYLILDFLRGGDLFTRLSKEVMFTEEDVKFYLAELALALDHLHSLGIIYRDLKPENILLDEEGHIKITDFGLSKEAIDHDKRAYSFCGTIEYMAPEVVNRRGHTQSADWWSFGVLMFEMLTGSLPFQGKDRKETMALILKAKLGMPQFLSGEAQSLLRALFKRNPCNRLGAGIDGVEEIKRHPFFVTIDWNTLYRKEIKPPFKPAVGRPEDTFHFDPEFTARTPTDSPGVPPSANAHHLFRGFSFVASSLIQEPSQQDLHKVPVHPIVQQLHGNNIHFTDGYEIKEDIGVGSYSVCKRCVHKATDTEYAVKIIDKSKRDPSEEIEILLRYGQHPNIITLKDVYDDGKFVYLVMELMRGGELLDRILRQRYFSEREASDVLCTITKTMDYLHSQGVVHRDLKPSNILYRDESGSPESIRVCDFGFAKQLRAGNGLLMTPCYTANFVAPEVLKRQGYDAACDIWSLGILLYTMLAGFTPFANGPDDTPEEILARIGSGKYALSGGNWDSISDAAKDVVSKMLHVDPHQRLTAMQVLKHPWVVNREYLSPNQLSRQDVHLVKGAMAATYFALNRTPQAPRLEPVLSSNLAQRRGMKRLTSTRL
Experimental: as §1

SGK(h) = target: T23, SGK(h) (Homo sapiens, UniProt O00141); experiment: KinaseProfiler enzyme profiling; format: biochemical; settings: 100 nM
T23 construct: purchased Eurofins KinaseProfiler
Experimental: as §1

TYK2(h) = target: T24, TYK2(h) (Homo sapiens, UniProt P29597); experiment: KinaseProfiler enzyme profiling; format: biochemical; settings: 100 nM
T24 construct: purchased Eurofins KinaseProfiler
Experimental: as §1

EphA5(h) = target: T25, EphA5(h) (Homo sapiens, UniProt P54756); experiment: KinaseProfiler enzyme profiling; format: biochemical; settings: 100 nM
T25 construct: purchased Eurofins KinaseProfiler
Experimental: as §1

KDR(h) = target: T26, KDR(h) (Homo sapiens, UniProt P35968); experiment: KinaseProfiler enzyme profiling; format: biochemical; settings: 100 nM
T26 construct: purchased Eurofins KinaseProfiler
Experimental: as §1

MST4(h) = target: T27, MST4(h) (Homo sapiens, UniProt Q9P289); experiment: KinaseProfiler enzyme profiling; format: biochemical
T27 construct: purchased Eurofins KinaseProfiler
Experimental: as §1

PAK5(h) = target: T28, PAK5(h) (Homo sapiens, UniProt Q9P286); experiment: KinaseProfiler enzyme profiling; format: biochemical
T28 construct: purchased Eurofins KinaseProfiler
Experimental: as §1

NEK6(h) = target: T29, NEK6(h) (Homo sapiens, UniProt Q9HC98); experiment: KinaseProfiler enzyme profiling; format: biochemical
T29 construct: purchased Eurofins KinaseProfiler
T29 sequence (Q9HC98 whole entry): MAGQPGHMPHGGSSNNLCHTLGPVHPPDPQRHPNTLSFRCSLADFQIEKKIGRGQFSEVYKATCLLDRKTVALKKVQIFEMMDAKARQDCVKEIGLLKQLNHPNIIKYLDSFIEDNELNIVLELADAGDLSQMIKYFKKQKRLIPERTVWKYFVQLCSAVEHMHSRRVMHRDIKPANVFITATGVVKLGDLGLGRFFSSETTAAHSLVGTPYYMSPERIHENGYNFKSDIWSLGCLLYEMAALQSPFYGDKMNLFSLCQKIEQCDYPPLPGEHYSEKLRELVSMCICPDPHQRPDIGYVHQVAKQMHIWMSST
Experimental: as §1

ErbB2(h) = target: T30, ErbB2(h) (Homo sapiens, UniProt P04626); experiment: KinaseProfiler enzyme profiling; format: biochemical
T30 construct: purchased Eurofins KinaseProfiler
Experimental: as §1

PAK6(h) = target: T31, PAK6(h) (Homo sapiens, UniProt Q9NQU5); experiment: KinaseProfiler enzyme profiling; format: biochemical
T31 construct: purchased Eurofins KinaseProfiler
Experimental: as §1

CDK12/cyclinK(h) = target: T32, CDK12/cyclinK(h) (Homo sapiens, UniProt Q9NYV4); experiment: KinaseProfiler enzyme profiling; format: biochemical
T32 construct: purchased Eurofins KinaseProfiler
T32 sequence (Q9NYV4 whole entry): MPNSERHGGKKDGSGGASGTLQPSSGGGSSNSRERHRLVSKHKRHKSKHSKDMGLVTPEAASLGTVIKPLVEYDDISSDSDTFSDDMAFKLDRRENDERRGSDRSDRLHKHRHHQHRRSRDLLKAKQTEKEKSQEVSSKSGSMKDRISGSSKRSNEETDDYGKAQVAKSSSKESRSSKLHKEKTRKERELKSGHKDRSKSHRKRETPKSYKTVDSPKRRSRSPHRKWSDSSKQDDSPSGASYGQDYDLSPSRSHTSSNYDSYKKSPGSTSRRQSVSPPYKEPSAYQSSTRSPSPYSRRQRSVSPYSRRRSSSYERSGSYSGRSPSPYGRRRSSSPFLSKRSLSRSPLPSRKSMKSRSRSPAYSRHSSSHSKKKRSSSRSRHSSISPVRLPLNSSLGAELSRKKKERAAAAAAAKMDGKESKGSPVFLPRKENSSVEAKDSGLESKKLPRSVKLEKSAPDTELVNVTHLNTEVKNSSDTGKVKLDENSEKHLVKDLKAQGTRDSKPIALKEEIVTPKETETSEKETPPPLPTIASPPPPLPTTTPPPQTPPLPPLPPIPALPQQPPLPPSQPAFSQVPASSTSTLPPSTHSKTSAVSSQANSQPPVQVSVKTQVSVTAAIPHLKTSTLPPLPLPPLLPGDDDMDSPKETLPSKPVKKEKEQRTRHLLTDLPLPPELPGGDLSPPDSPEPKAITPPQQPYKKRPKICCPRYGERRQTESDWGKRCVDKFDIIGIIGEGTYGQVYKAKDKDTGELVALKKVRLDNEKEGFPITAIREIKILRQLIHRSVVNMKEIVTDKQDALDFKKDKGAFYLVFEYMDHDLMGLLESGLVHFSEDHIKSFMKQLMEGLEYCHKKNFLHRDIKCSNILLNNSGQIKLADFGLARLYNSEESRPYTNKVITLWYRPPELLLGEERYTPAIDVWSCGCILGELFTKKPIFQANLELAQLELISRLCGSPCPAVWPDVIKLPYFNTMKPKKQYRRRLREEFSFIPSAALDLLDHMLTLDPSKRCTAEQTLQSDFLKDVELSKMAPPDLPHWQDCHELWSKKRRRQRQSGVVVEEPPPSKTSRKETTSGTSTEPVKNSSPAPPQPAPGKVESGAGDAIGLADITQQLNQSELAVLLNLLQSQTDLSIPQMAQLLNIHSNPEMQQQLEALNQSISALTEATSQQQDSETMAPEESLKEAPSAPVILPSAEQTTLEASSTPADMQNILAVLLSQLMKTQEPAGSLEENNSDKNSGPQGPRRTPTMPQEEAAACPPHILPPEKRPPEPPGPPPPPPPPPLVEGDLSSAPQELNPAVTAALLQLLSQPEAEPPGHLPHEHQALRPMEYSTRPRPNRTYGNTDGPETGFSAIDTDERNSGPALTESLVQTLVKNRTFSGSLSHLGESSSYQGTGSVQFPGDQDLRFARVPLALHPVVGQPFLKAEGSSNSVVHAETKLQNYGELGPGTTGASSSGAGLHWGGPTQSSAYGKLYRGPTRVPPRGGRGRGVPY
T32 sequence (O75909 whole entry partner): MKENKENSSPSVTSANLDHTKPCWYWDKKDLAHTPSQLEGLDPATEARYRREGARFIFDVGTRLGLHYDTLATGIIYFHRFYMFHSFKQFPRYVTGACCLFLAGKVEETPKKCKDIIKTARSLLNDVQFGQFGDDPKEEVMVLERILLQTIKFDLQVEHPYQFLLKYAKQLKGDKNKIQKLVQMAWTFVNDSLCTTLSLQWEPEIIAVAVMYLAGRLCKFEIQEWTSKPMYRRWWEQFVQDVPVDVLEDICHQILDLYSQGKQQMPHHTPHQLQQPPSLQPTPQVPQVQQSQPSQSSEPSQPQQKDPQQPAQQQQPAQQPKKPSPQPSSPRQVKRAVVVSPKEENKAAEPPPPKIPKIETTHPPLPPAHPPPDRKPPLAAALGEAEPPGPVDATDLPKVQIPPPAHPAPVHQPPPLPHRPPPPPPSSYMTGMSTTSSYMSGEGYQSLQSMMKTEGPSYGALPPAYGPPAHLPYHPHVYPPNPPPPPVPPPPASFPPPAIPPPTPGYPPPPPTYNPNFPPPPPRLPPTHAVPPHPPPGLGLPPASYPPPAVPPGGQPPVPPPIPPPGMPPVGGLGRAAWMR
Experimental: as §1

- activity at 10 µM (CDK5/p35(h)): 99%
- activity at 10 µM (MKK6(h)): 112%
- activity at 10 µM (DYRK2(h)): 97%
- activity at 10 µM (DCAMKL3(h)): 109%
- activity at 10 µM (HIPK2(h)): 100%
- activity at 10 µM (Axl(h)): 97%
- activity at 10 µM (DAPK1(h)): 103%
- activity at 10 µM (NIM1(h)): 121%
- activity at 10 µM (CK1γ3(h)): 104%
- activity at 10 µM (FGFR4(h)): 87%
- activity at 10 µM (FGFR3(h)): 98%
- activity at 10 µM (Mer(h)): 109%
Structure (SMILES): COc1cc2oc(-c3ccc(O)c(O)c3)cc(=O)c2c(O)c1OC [Cirsiliol]

Structure (SMILES): COc1ccc(CCc2cc(OC)c(OC)c(OC)c2)cc1O [Erianin]
- body weight (A375 (BRAF V600E) CDX): no significant reduction
- tumor volume (A375 (BRAF V600E) CDX; vs vehicle-treated group): significant decrease
- body weight [1]: no significant reduction
- tumor volume ([1]; vs vehicle-treated group): significant decrease
- activity at 0.1 µM (Rsk2(h)): 106%
- activity at 0.1 µM (Wee1(h)): 111%
- activity at 0.1 µM (ZIPK(h)): 111%
- activity at 0.1 µM (MEK2(h)): 83%
- activity at 0.1 µM (EphB1(h)): 91%
- activity at 0.1 µM (BTK(h)): 104%
- activity at 0.1 µM (CaMKIIα(h)): 90%
- activity at 0.1 µM (EphA4(h)): 93%
- activity at 0.1 µM (Ros(h)): 103%
- activity at 0.1 µM (Rsk3(h)): 108%
- activity at 0.1 µM (SGK(h)): 122%
- activity at 0.1 µM (TYK2(h)): 100%
- activity at 0.1 µM (EphA5(h)): 108%
- activity at 0.1 µM (KDR(h)): 96%

- activity at 10 µM (MST4(h)): 140%
- activity at 10 µM (PAK5(h)): 98%
- activity at 10 µM (NEK6(h)): 99%
- activity at 10 µM (ErbB2(h)): 112%
- activity at 10 µM (PAK6(h)): 104%
- activity at 10 µM (CDK12/cyclinK(h)): 98%
Structure (SMILES): C=C1C(=O)[C@]23[C@H](O)[C@H]1CC[C@H]2[C@@]12CO[C@]3(O)[C@@H](O)[C@@H]1C(C)(C)CC[C@@H]2O [Oridonin]

Source: paper PMC9986241 (Signal Transduction and Targeted Therapy, 2023)
